The target in one experiment is PAK-4 (Homo sapiens, UniProt O96013). Kind of experiment: In vitro PAK inhibition assay (Z'-LYTE, SelectScreen Kinase Profiling). The class given is biochemical. The following applies: read-out: PAK4 IC50. How it is done:
(§1) Compounds are screened in 1% DMSO (final) in the well. For 10 point titrations, 3-fold serial dilutions are conducted. All Peptide/Kinase Mixtures are diluted to a 2× working concentration in the appropriate Kinase Buffer
The 2X PAK-4/Ser/Thr 20 mixture is prepared in 50 mM HEPES pH 7.5, 0.01% BRIJ-35, 10 mM MgCl2, 1 mM EGTA. The final 10 μL Kinase Reaction consists of 0.1-0.75 ng PAK-4 and 2 μM Ser/Thr 20 in 50 mM HEPES pH 7.5, 0.01% BRIJ-35, 10 mM MgCl2, 1 mM EGTA. After the 1 hour Kinase Reaction incubation, 5 μL of a 1:256 dilution of Development Reagent A is added.
Bar-coded Corning, low volume NBS, black 384-well plate (Corning Cat. #3676) • 1. Add the following solutions to a well in a 384-well plate: 2.5 μL of 4× Test Compound OR (100 nL 100× Test Compound plus 2.4 μL kinase buffer) • 5 μL of 2× Peptide/Kinase (PAK) Mixture • 2.5 μL of 4×ATP Solution • 2. Shake the plate for 30-seconds • 3. Incubate the PAK Kinase Reaction at room temperature for 60-minutes • 4. Add 5 μL of Development Reagent Solution to each well • 5. Shake the plate for 30-seconds • 6. Incubate the Development Reaction for 60-minutes • 7. Determine the fluorescence using a fluorescence plate reader • 8. Analyze the fluorescence data
SelectScreen® Kinase Profiling Service uses XLfit from IDBS. The dose response curve is curve fit to model number 205 (sigmoidal dose-response model).

For a further experiment, the target named is PAK3 (Homo sapiens, UniProt O75914). The experiment is described as above. The class given is biochemical. How it is done:
as §1
The 2×PAK3/Ser/Thr 20 mixture is prepared in 50 mM HEPES pH 7.5, 0.01% BRIJ-35, 10 mM MgCl2, 1 mM EGTA.
(§2) Add the following solutions to a well in a 384-well plate: 2.5 μL of 4× Test Compound OR (100 nL 100× Test Compound plus 2.4 μL kinase buffer) • 5 μL of 2× Peptide/Kinase (PAK) Mixture • 2.5 μL of 4×ATP Solution • 2. Shake the plate for 30-seconds • 3. Incubate the PAK Kinase Reaction at room temperature for 60-minutes • 4. Add 5 μL of Development Reagent Solution to each well • 5. Shake the plate for 30-seconds • 6. Incubate the Development Reaction for 60-minutes • 7. Determine the fluorescence using a fluorescence plate reader • 8. Analyze the fluorescence data
(§3) SelectScreen® Kinase Profiling Service uses XLfit from IDBS.

Another experiment addresses PAK1 (Homo sapiens, UniProt Q13153). The experiment is described as above. The class given is biochemical. How it is done: as §1
The 2×PAK1/Ser/Thr 19 mixture is prepared in 50 mM HEPES pH 7.5, 0.01% BRIJ-35, 10 mM MgCl2, 1 mM EGTA.
as §2, §3

For another experiment, the target named is PAK2 (PAK65) (Homo sapiens, UniProt Q13177). The description is as above. The class given is biochemical. As for the experimental part:
as §1
The 2×PAK2 (PAK65)/Ser/Thr 20 mixture is prepared in 50 mM HEPES pH 7.5, 0.01% BRIJ-35, 10 mM MgCl2, 1 mM EGTA. The final 10 μL Kinase Reaction consists of 0.29-6 ng PAK2 (PAK65) and 2 μM Ser/Thr 20 in 50 mM HEPES pH 7.5, 0.01% BRIJ-35, 10 mM MgCl2, 1 mM EGTA.
as §2, §3

For another experiment, the target named is T1, p-PAK1(S144) (Rattus norvegicus, UniProt P35465).
T1 construct: endogenous in cells; host or cells: RT4-D6P2T
T1 sequence (P35465 whole entry): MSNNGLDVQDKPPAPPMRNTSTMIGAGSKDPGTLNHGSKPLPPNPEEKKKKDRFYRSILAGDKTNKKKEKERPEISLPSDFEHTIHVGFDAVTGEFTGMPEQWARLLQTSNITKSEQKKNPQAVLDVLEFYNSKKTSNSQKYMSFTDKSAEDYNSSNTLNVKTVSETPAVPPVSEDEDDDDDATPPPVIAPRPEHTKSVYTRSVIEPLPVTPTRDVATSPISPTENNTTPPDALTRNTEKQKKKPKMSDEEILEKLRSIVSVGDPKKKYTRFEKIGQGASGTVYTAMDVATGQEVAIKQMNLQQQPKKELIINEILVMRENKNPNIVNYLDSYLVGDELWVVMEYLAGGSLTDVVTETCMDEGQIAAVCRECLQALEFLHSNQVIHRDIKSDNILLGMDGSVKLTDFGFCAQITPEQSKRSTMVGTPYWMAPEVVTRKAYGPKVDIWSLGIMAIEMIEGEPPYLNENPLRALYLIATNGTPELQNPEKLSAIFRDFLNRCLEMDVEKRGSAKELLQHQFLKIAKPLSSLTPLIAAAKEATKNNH
The experiment is described as follows: In vitro p-PAK1(S144) cellular HTRF assay. The class given is cell-based. The settings on record: cell line RT4-D6P2T, read-out: pPAK1(S144) IC50. From the text:
Compounds for treatment of cancer are subject to in vitro cellular HTRF assay for p-PAK1(S144). The cell line is RT4-D6P2T. The HTRF assay kits are obtained from Cisbio Bioassays, 135 South Road, Bedford, Mass. 01730, USA.
A general note: In TR-FRET formats the signal depends on donor and acceptor labels being close together.

We go through 24 compounds from patent US20130158043A1, “PAK INHIBITORS FOR THE TREATMENT OF CANCER” (AFRAXIS, INC., priority 2011, published 2013).

PAK3, sequence (O75914 whole entry): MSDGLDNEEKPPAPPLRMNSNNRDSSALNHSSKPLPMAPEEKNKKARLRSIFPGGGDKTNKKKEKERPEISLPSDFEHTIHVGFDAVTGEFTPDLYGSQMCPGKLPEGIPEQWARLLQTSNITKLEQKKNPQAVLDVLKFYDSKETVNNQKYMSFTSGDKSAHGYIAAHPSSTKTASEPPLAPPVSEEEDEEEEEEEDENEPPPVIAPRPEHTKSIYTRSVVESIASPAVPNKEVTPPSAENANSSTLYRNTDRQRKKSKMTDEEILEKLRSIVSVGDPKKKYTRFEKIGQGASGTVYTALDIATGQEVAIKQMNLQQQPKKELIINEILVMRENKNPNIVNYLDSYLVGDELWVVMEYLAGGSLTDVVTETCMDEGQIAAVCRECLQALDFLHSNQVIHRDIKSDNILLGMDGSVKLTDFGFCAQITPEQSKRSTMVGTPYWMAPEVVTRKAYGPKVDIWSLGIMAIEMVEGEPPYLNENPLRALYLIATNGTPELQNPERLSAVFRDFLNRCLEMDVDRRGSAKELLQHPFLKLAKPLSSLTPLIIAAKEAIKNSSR
PAK-4, sequence (O96013 whole entry): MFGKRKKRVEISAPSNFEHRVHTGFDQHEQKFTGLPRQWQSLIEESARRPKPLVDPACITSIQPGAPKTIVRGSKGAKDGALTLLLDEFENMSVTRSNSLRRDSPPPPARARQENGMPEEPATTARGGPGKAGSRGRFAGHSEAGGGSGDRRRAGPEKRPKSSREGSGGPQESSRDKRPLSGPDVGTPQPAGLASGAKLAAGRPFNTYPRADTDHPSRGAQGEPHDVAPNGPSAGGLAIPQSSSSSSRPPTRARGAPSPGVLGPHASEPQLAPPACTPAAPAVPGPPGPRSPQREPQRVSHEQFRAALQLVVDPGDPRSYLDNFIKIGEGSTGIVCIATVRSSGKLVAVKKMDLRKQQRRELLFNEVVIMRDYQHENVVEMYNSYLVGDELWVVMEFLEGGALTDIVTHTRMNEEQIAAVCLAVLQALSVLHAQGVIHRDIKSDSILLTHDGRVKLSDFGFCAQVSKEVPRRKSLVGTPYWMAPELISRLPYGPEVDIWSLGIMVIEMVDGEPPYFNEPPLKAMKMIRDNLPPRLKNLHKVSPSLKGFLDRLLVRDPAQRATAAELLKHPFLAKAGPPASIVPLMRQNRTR
PAK2 (PAK65), sequence (Q13177 whole entry): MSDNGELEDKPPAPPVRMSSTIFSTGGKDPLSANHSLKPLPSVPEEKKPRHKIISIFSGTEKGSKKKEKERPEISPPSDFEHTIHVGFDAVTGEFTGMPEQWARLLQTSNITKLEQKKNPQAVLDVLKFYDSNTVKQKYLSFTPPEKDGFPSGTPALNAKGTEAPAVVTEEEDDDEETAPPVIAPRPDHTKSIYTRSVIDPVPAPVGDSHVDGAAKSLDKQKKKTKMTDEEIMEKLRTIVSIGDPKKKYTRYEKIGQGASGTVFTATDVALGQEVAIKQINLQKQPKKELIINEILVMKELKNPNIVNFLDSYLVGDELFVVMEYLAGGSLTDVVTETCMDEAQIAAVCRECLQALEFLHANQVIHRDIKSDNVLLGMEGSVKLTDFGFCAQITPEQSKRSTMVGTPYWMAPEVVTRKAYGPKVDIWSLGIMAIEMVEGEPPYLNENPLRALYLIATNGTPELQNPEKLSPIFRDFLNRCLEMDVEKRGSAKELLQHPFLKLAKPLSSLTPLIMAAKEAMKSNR
PAK1, sequence (Q13153 whole entry): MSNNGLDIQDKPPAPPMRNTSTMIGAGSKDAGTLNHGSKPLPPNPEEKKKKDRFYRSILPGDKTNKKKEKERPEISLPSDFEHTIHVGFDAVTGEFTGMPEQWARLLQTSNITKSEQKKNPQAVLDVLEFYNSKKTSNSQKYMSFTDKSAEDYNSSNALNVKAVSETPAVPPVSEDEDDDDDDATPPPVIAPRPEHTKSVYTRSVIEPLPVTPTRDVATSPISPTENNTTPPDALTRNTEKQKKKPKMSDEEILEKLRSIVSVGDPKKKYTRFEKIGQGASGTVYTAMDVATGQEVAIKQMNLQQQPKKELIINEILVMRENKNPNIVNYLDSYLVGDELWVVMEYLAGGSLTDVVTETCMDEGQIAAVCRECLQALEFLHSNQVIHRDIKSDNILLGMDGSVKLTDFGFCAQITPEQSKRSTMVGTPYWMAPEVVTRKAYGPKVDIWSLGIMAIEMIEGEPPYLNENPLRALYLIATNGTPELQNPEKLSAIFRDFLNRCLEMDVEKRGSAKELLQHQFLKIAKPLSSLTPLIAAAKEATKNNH

A word on the IC50: it is the concentration at which inhibition is half-maximal. Regarding `CN1CCN(c2ccc(Nc3ncc4ccc(=O)n(Cc5occc5C5CC5)c4n3)cc2)CC1`, the IC50 at PAK-4, at PAK3, on PAK1 and against PAK2 (PAK65) was 500 to 5000 nM each time.
For `CN1CCN(c2ccc(Nc3ncc4ccc(=O)n(Cc5ncsc5C5CC5)c4n3)cc2)CC1`, the IC50 on PAK-4 was in the range of 500 to 5000 nM; on PAK3, 500 to 5000 nM; at PAK1, 50 to 500 nM; at PAK2 (PAK65), 500 to 5000 nM.
On to `CCn1c(=O)c(-c2ccc(-c3cccnc3)cc2Cl)cc2cnc(Nc3ccc(CCN(C)C)cc3)nc21`, for which the IC50 on PAK-4 is 500 to 5000 nM; on PAK3, < 50 nM; at PAK1, < 50 nM; on PAK2 (PAK65), < 50 nM.
Regarding `CCn1c(=O)c(-c2ccc(-c3cnc(C)s3)cc2Cl)cc2cnc(Nc3ccc(C4CCNCC4)cc3)nc21`, the concentration for half-maximal inhibition (IC50) was 500 to 5000 nM on PAK-4, < 50 nM on PAK3, < 50 nM at PAK1 and < 50 nM at PAK2 (PAK65).
For the compound `CCn1c(=O)c(-c2ccc(-c3cccnc3C)cc2Cl)cc2cnc(Nc3ccc(C4CCNCC4)cc3)nc21`, the IC50 is ≥ 5000 nM at PAK-4, < 50 nM at PAK3, < 50 nM on PAK1 and < 50 nM on PAK2 (PAK65).
With `CCn1c(=O)c(-c2ccc(-c3ccnc(C)c3)cc2Cl)cc2cnc(Nc3ccc(C4CCNCC4)c(F)c3)nc21`, the IC50 at PAK-4 is 500 to 5000 nM; against PAK3, 50 to 500 nM; on PAK1 it was < 50 nM; at PAK2 (PAK65), < 50 nM.
Turning to `CCn1c(=O)c(-c2ccc(-c3cccnc3F)cc2Cl)cc2cnc(Nc3ccc(C4CCNCC4)cc3)nc21`, the IC50 at PAK-4 was 50 to 500 nM; at PAK3 it was < 50 nM; against PAK1, < 50 nM; against PAK2 (PAK65), < 50 nM.
Regarding `CCn1c(=O)c(-c2ccc(-c3cccnc3F)cc2Cl)cc2cnc(Nc3ccc(C4CCN(C)CC4)cc3)nc21`, the IC50 on PAK-4 was 50 to 500 nM; against PAK3 it was < 50 nM; on PAK1, < 50 nM; at PAK2 (PAK65) it was < 50 nM.
For the compound `CCn1c(=O)c(-c2ccc(-c3cccnc3F)cc2Cl)cc2cnc(Nc3ccc(C4CCN5CCCC5C4)cc3)nc21` (stereo not drawn), the IC50 at PAK-4 is 500 to 5000 nM; against PAK3, < 50 nM; against PAK1, < 50 nM; on PAK2 (PAK65), < 50 nM.
As to `CCn1c(=O)c(-c2ccc(-c3noc(C)n3)cc2Cl)cc2cnc(Nc3ccc(CCN(C)C)cc3)nc21`, the IC50 on PAK-4 is 500 to 5000 nM; against PAK3 it was < 50 nM; against PAK1, < 50 nM; at PAK2 (PAK65) it was < 50 nM.
As to `CCN1CCC(c2ccc(Nc3ncc4cc(-c5ccc(-c6noc(C)n6)cc5Cl)c(=O)n(CC)c4n3)cc2)CC1`, the IC50 at PAK-4 was 500 to 5000 nM; against PAK3 it was < 50 nM; at PAK1, < 50 nM; against PAK2 (PAK65), < 50 nM.
For `Cc1nc(-c2ccc(-c3cc4cnc(Nc5ccc(C6CCN(C)CC6)cc5)nc4n(C)c3=O)c(Cl)c2)no1`, the IC50 was ≥ 5000 nM at PAK-4, < 50 nM against PAK3, < 50 nM against PAK1 and < 50 nM at PAK2 (PAK65).
Consider `CCn1c(=O)c(-c2ccc(-c3cccnc3C)cc2)cc2cnc(Nc3ccc(C4CCN(C)CC4)cc3)nc21`, for which the IC50 on PAK-4 was ≥ 5000 nM; at PAK3, 500 to 5000 nM; against PAK1 it was 500 to 5000 nM; against PAK2 (PAK65), 500 to 5000 nM.
Take `CCn1c(=O)c(-c2ccc(-c3cccnc3C)cc2F)cc2cnc(Nc3ccc(C4CCN(C)CC4)cc3)nc21`: the IC50 at PAK-4 was ≥ 5000 nM; at PAK3, 50 to 500 nM; against PAK1, 50 to 500 nM; against PAK2 (PAK65), 50 to 500 nM.
In the case of `CCn1c(=O)c(-c2ccc(-c3cnc(C)cn3)cc2Cl)cc2cnc(Nc3ccc(C4CCN(C)CC4)cc3)nc21`, the IC50 on PAK-4 is 50 to 500 nM; on PAK3 it was < 50 nM; against PAK1 it was < 50 nM; on PAK2 (PAK65) it was < 50 nM.
As to `CCn1c(=O)c(-c2ccc(-c3nccnc3C)cc2Cl)cc2cnc(Nc3ccc(C4CCN(C)CC4)cc3)nc21`, the IC50 at PAK-4 is 500 to 5000 nM; on PAK3, < 50 nM; on PAK1, < 50 nM; against PAK2 (PAK65), < 50 nM.
Consider `CCn1c(=O)c(-c2ccc(-c3ccnc(C)n3)cc2Cl)cc2cnc(Nc3ccc(C4CCN(C)CC4)cc3)nc21`, for which the IC50 at PAK-4 is 500 to 5000 nM; on PAK3, < 50 nM; on PAK1, < 50 nM; at PAK2 (PAK65), < 50 nM.
For the compound `CCn1c(=O)c(-c2ccc(-c3cncc(C)n3)cc2Cl)cc2cnc(Nc3ccc(C4CCN(C)CC4)cc3)nc21`, the IC50 at PAK-4 was 500 to 5000 nM; on PAK3 it was < 50 nM; against PAK1, < 50 nM; against PAK2 (PAK65) it was < 50 nM.
Consider `CCn1c(=O)c(-c2ccc(-c3cccnc3C)nc2)cc2cnc(Nc3ccc(C4CCN(C)CC4)cc3)nc21`, for which the IC50 at PAK-4 is ≥ 5000 nM; against PAK3 it was > 5000 nM; at PAK1, > 5000 nM; against PAK2 (PAK65) it was > 5000 nM.
On to `CN(C)CCc1ccc(Nc2ncc3cc(-c4cc(N(C)C)c(-c5cccnc5)cc4Cl)c(=O)n(C)c3n2)cc1`, for which the half-inhibitory concentration (IC50) on PAK-4 is ≥ 5000 nM; against PAK3 it was < 50 nM; against PAK1, < 50 nM; on PAK2 (PAK65), 50 to 500 nM.
In the case of `Cc1cc(-c2nccnc2C)ccc1-c1cc2cnc(Nc3ccc(C4CCN(C)CC4)cc3)nc2n(C)c1=O`, the IC50 is ≥ 5000 nM at PAK-4, 50 to 500 nM against PAK3, < 50 nM against PAK1 and < 50 nM on PAK2 (PAK65).
As to `CN1CCN(c2ccc(Nc3ncc4cc(-c5ccc(-c6cccnc6F)cc5Cl)c(=O)n(C)c4n3)cc2)CC1`, the IC50 at p-PAK1(S144) lay in the range of 50 to 500 nM.
In the case of `CCN1CCN(c2ccc(Nc3ncc4cc(-c5ccc(-c6cccnc6)cc5Cl)c(=O)n(CC)c4n3)cc2F)CC1` [drawing 727], the IC50 is ≥ 5000 nM on PAK-4, < 50 nM against PAK3, < 50 nM on PAK1 and < 50 nM at PAK2 (PAK65).
Take `CCN1CCN(c2ccc(Nc3ncc4cc(-c5ccc(-c6cccnc6)cc5Cl)c(=O)n(CC)c4n3)cc2F)CC1` [drawing 756]: the IC50 at p-PAK1(S144) was in the range of 50 to 500 nM.
